Where “and” joins values, the source holds several entries; their conditions need not be identical. Equal entries are not always repeated. Structures can show the parent of a compound that is named as a salt. Marks after values point to notes of the source that are not given here.
Test system: eyes of patients with pupil size in dim light of greater than 7 mm
Experiment: Example 2 clinical study: pupil diameter by NeurOptics pupilometer; one drop oxymetazoline (Visine LR) then one drop test article in Tears Naturale II in each eye
Assay type: in vivo, humans
Conditions: for Range of pupil diameters: immediately prior to administration
Protocol: Sixteen patients were randomized into four groups (of four subjects each). Each group was treated on three successive study visits separated by at least 4 days with one drop of ophthalmic oxymetazoline solution (Visine LR®) in each eye followed by one drop test article in each eye. The test article was a 0.2% (w/v) phentolamine mesylate solution, 0.4% (w/v) phentolamine mesylate solution, 0.8% (w/v) phentolamine mesylate solution, or placebo. Test articles contained the designed amount of phentolamine mesylate in a solution of Tears Naturale II® (from Alcon Labs). Placebo was just Tears Naturale II® (from Alcon Labs). Tears Naturale II® (from Alcon Labs) contains Dextran 70 (0.1% by weight), Hydroxypropyl Methylcellulose 2910 (0.3% by weight), Polyquarternium-1 (0.001% by weight), potassium chloride, water (purified), sodium borate, sodium chloride, and hydrochloric acid and/or sodium hydroxide as necessary to adjust the pH. The patients' eye redness and pupil diameters were recorded at baseline (i.e., prior to treatment administration), and at 30 minutes, 1 hour, 2 hours, 4 hours, and 8 hours after administration of test articles. The incidence of any treatment-emergent adverse events was also recorded. Total study duration was approximately nine hours.
Eye redness of patients' eyes was evaluated by the research assistant and recorded as a single integer of value 0 (no redness) to 4 (extreme redness) at baseline and each time point after treatment. Pupil diameters were measured to within 0.1 mm for each eye at baseline and each subsequent time point using a NeurOptics™ pupilometer. Monocular high contrast visual acuity was measured for each eye under photopic conditions at baseline and each subsequent time point in a darkened room using a Precision Vision™ High Contrast (100% tint) Visual Acuity Chart (Catalog #2102) backlit by the Precision Vision Illumination Box. Monocular low contrast visual acuity was measured for each eye under photopic conditions at baseline and each subsequent time point in a darkened room using a Precision Vision™ Low Contrast (5% tint) Visual Acuity Chart (Catalog #2186) backlit by the Precision Vision Illumination Box. Effect of treatment on glare was assessed using an experimental test method consisting of a panel with a high wattage central light emitting diode (LED) and a set of 7 lower wattage red LEDs radiating horizontally and vertically from the central light.
Comparisons of changes in mean values within treatment groups were tested for significance using two-tailed paired two sample t-tests with a threshold for significance set at p<0.01 (Bonferroni Correction for multiple paired t-tests). Differences between treatment groups with respect to mean values for pupil size over the course of the study were tested for significance using repeated measure ANOVA (which discards data from subjects lacking any data points). Differences in mean eye redness between treatment groups were evaluated using Kruskal-Wallis nonparametric testing. Differences in means between treatment groups at individual time points were tested for significance using one-way ANOVA.

[1] = 0.2% (w/v) solution, 30 min after treatment
[2] = 0.2% (w/v) solution, 1 hour after treatment
[3] = 0.2% (w/v) solution, 2 hours after treatment
[4] = 0.2% (w/v) solution, 4 hours after treatment
[5] = 0.2% (w/v) solution, 8 hours after treatment
[6] = 0.2% (w/v) solution, Baseline, prior to treatment
[7] = 0.4% (w/v) solution, 30 min after treatment
[8] = 0.4% (w/v) solution, 1 hour after treatment
[9] = 0.4% (w/v) solution, 2 hours after treatment
[10] = 0.4% (w/v) solution, 4 hours after treatment
[11] = 0.4% (w/v) solution, 8 hours after treatment
[12] = 0.4% (w/v) solution, Baseline, prior to treatment
[13] = 0.8% (w/v) solution, 30 min after treatment
[14] = 0.8% (w/v) solution, 1 hour after treatment
[15] = 0.8% (w/v) solution, 2 hours after treatment
[16] = 0.8% (w/v) solution, 4 hours after treatment
[17] = 0.8% (w/v) solution, 8 hours after treatment
[18] = 0.8% (w/v) solution, Baseline, prior to treatment

Compound: Cc1ccc(N(CC2=NCCN2)c2cccc(O)c2)cc1 [Phentolamine Mesylate, phentolamine mesylate]
- Maximum pupil diameter [1]: 9.2 mm
- Mean change in pupil diameter from baseline [1]: −0.04 mm
- Mean pupil diameter [1]: 7.74 mm
- Minimum pupil diameter [1]: 5.1 mm
- Maximum pupil diameter [2]: 8.9 mm
- Mean change in pupil diameter from baseline [2]: −0.24 mm
- Mean pupil diameter [2]: 7.54 mm
- Minimum pupil diameter [2]: 4.9 mm
- Maximum pupil diameter [3]: 8.4 mm
- Mean change in pupil diameter from baseline [3]: −0.75 mm
- Mean pupil diameter [3]: 7.01^c mm
- Minimum pupil diameter [3]: 4.7 mm
- Maximum pupil diameter [4]: 8.0 mm
- Mean change in pupil diameter from baseline [4]: −0.69 mm
- Mean pupil diameter [4]: 7.30^d mm
- Minimum pupil diameter [4]: 6.3 mm
- Maximum pupil diameter [5]: 8.5 mm
- Mean change in pupil diameter from baseline [5]: −0.59 mm
- Mean pupil diameter [5]: 7.18 mm
- Minimum pupil diameter [5]: 4.7 mm
- Range of pupil diameters (0.2% (w/v) solution, Baseline): 5.2-8.8 mm
- Maximum pupil diameter [6]: 8.8 mm
- Mean pupil diameter [6]: 7.8 mm and 7.78 mm
- Minimum pupil diameter [6]: 5.2 mm
- change from baseline in mean pupil diameter, significance (0.2%, 0.4% and 0.8% (w/v), by one hour post treatment, p<0.01): significant
- mean pupil diameter between different doses (0.2%, 0.4%, 0.8% (w/v), any time point): no statistically significant differences
- Maximum pupil diameter [7]: 8.8 mm
- Mean change in pupil diameter from baseline [7]: 0.00 mm
- Mean pupil diameter [7]: 7.72 mm
- Minimum pupil diameter [7]: 5.6 mm
- Maximum pupil diameter [8]: 8.3 mm
- Mean change in pupil diameter from baseline [8]: −0.29 mm
- Mean pupil diameter [8]: 7.41 mm
- Minimum pupil diameter [8]: 5.5 mm
- Maximum pupil diameter [9]: 8.4 mm
- Mean change in pupil diameter from baseline [9]: −0.64 mm
- Mean pupil diameter [9]: 7.05 mm
- Minimum pupil diameter [9]: 5.0 mm
- Maximum pupil diameter [10]: 8.1 mm
- Mean change in pupil diameter from baseline [10]: −0.74 mm
- Mean pupil diameter [10]: 7.01 mm
- Minimum pupil diameter [10]: 5.0 mm
- Maximum pupil diameter [11]: 8.6 mm
- Mean change in pupil diameter from baseline [11]: −0.74 mm
- Mean pupil diameter [11]: 7.01 mm
- Minimum pupil diameter [11]: 4.8 mm
- Range of pupil diameters (0.4% (w/v) solution, Baseline): 5.8-8.6 mm
- Maximum pupil diameter [12]: 8.6 mm
- Mean pupil diameter [12]: 7.7 mm and 7.71 mm
- Minimum pupil diameter [12]: 5.8 mm
- Maximum pupil diameter [13]: 9.2 mm
- Mean change in pupil diameter from baseline [13]: −0.10 mm
- Mean pupil diameter [13]: 7.87 mm
- Minimum pupil diameter [13]: 5.2 mm
- Maximum pupil diameter [14]: 9.1 mm
- Mean change in pupil diameter from baseline [14]: −0.27 mm
- Mean pupil diameter [14]: 7.69 mm
- Minimum pupil diameter [14]: 5.1 mm
- Maximum pupil diameter [15]: 8.7 mm
- Mean change in pupil diameter from baseline [15]: −0.66 mm
- Mean pupil diameter [15]: 7.30 mm
- Minimum pupil diameter [15]: 4.7 mm
- Maximum pupil diameter [16]: 8.6 mm
- Mean change in pupil diameter from baseline [16]: −0.64 mm
- Mean pupil diameter [16]: 7.32 mm
- Minimum pupil diameter [16]: 5.5 mm
- Maximum pupil diameter [17]: 8.7 mm
- Mean change in pupil diameter from baseline [17]: −0.56 mm
- Mean pupil diameter [17]: 7.40 mm
- Minimum pupil diameter [17]: 4.7 mm
- Range of pupil diameters (0.8% (w/v) solution, Baseline): 4.6-9.3 mm
- Maximum pupil diameter [18]: 9.3 mm
- Mean pupil diameter [18]: 8.0 mm and 7.96 mm
- Minimum pupil diameter [18]: 4.6 mm
- mean pupil diameter compared to placebo (ad hoc Fisher's test) (any concentration (0.2%, 0.4%, 0.8% w/v), 2, 4 and 8 hours): significant differences

Source: patent US11000509B2, “Methods and compositions for daily ophthalmic administration of phentolamine to improve visual performance” (Ocuphire Pharma, Inc., priority 2013, dated 2021)
